{"source": "ChEMBL document CHEMBL1159113", "about": "“Investigation of Beckett-Casy model 1: synthesis of novel 16,17-seco-naltrexone derivatives and their pharmacology” (Bioorg Med Chem Lett, 2010)", "key": {"[1]": {"biological_target": "Mu-type opioid receptor (Cavia porcellus, UniProt P97266)", "sequence (P97266 whole entry)": "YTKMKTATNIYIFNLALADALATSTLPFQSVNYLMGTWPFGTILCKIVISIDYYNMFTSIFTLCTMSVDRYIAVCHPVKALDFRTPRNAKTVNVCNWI", "test": "Displacement of [3H]DAMGO from mu opioid receptor in guinea pig forebrain"}, "[2]": {"test": "Displacement of [3H]NTI from delta opioid receptor in guinea pig forebrain", "parameters": "species or system Cavia porcellus"}, "[3]": {"biological_target": "Kappa-type opioid receptor (Cavia porcellus, UniProt P41144)", "sequence (P41144 whole entry)": "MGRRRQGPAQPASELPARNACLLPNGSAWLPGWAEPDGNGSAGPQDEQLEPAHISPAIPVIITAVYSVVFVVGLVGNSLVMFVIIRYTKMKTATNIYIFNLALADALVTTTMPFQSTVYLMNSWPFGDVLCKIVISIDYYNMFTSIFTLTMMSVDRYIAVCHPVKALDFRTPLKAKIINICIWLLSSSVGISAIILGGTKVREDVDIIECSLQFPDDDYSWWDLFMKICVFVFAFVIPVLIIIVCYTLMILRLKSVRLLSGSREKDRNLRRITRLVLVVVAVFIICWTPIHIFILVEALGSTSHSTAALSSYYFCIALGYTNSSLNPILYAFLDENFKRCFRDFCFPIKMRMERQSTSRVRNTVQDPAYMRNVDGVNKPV", "test": "Displacement of [3H]U69,593 from kappa opioid receptor in guinea pig cerebellum", "format": "tissue-based"}}}
{"smiles": "CN(CC1CC1)[C@@H]1Cc2ccc(O)c3c2[C@]24CCO[C@]12CCC(=O)[C@@H]4O3", "values": [{"measurement": "Ki", "setting": "[1]", "value": 24, "unit": "nM"}, {"measurement": "Ki", "setting": "[2]", "value": 43.2, "unit": "nM"}, {"measurement": "IC50", "setting": "[3]", "value": "> 1000", "unit": "nM"}]}
{"smiles": "CN(CC1CC1)C1Cc2ccc(O)c3c2[C@@]2(CCn4ccnn4)[C@@H](O3)C(=O)CC[C@@]12O", "note": "(stereo partly specified)", "values": [{"measurement": "IC50", "setting": "[1]", "value": "> 1000", "unit": "nM"}, {"measurement": "IC50", "setting": "[2]", "value": "> 1000", "unit": "nM"}, {"measurement": "IC50", "setting": "[3]", "value": "> 1000", "unit": "nM"}]}
{"smiles": "CC[C@]12c3c4ccc(O)c3O[C@H]1C(=O)CC[C@@]2(O)[C@H](N(C)CC1CC1)C4", "values": [{"measurement": "IC50", "setting": "[1]", "value": "> 1000", "unit": "nM"}, {"measurement": "Ki", "setting": "[2]", "value": 77.6, "unit": "nM"}, {"measurement": "IC50", "setting": "[3]", "value": "> 1000", "unit": "nM"}]}
{"smiles": "CN(CC1CC1)[C@@H]1Cc2ccc(O)c3c2[C@@]2(CCO3)CC(=O)CC[C@@]12O", "values": [{"measurement": "IC50", "setting": "[1]", "value": "> 1000", "unit": "nM"}, {"measurement": "IC50", "setting": "[2]", "value": "> 1000", "unit": "nM"}, {"measurement": "IC50", "setting": "[3]", "value": "> 1000", "unit": "nM"}]}
{"smiles": "C=C[C@]12c3c4ccc(O)c3O[C@H]1C(=O)CC[C@@]2(O)[C@H](NCC1CC1)C4", "values": [{"measurement": "Ki", "setting": "[1]", "value": 8.6, "unit": "nM"}, {"measurement": "Ki", "setting": "[2]", "value": 4.73, "unit": "nM"}, {"measurement": "Ki", "setting": "[3]", "value": 193, "unit": "nM"}]}
{"smiles": "C=C[C@]12c3c4ccc(O)c3O[C@H]1C(=O)CC[C@@]2(O)[C@H](N(C)CC1CC1)C4", "values": [{"measurement": "Ki", "setting": "[1]", "value": 26.4, "unit": "nM"}, {"measurement": "Ki", "setting": "[2]", "value": 39.7, "unit": "nM"}, {"measurement": "Ki", "setting": "[3]", "value": 200, "unit": "nM"}]}
{"smiles": "CC[C@]12c3c4ccc(O)c3O[C@H]1C(=O)CC[C@@]2(O)[C@H](NCC1CC1)C4", "values": [{"measurement": "Ki", "setting": "[1]", "value": 26.3, "unit": "nM"}, {"measurement": "Ki", "setting": "[2]", "value": 24.1, "unit": "nM"}, {"measurement": "Ki", "setting": "[3]", "value": 275, "unit": "nM"}]}
